According to patent publication US20220073536A1 (Rigel Pharmaceuticals, Inc., priority 2003, published 2022):
Where a name gives a salt, the structure may show the parent alone. Read-outs that look alike come from different tables or passages of the source.

Tested on: cultured human mast cells (CHMC)
Experiment: CHMC low cell density IgE activation: tryptase assay
Assay type: cell-based
Details: low cell density CHMC, IgE activation
Procedure, shortened: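 CHMC were seeded at 1000–1500 cells/well in MT buffer and incubated 1 hr at 37 °C. They were then stimulated with anti-IgE for 30 min at 37 °C, with unstimulated wells as controls. Released tryptase in the supernatant was measured with a fluorogenic substrate after 30 min at room temperature.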

[1] = tryptase release, 3 point, read-out: LD Tryptase, CHMC, IgE, 3 pt
[2] = tryptase release, 8 point, read-out: LD Tryptase, CHMC, IgE, 8 pt
[3] = Homo sapiens, Mast cell, tryptase, 3 pt, read-out: LD Tryptase, CHMC, IgE, 3 pt
[4] = tryptase, 3 pt, read-out: LD Tryptase, CHMC, IgE, 3 pt
[5] = tryptase, 8 pt, read-out: LD Tryptase, CHMC, IgE, 8 pt

What does the source list for `CNC(=O)COc1c(C)cc(Nc2ncc(F)c(Nc3ccc(OC)c(Cl)c3)n2)cc1C` [Compound 571, N4-(3-Chloro-4-methoxyphenyl)-N2-[3,5-dimethyl-4-(N-methylamino)carbonylmethyleneoxyphenyl]-5-fluoro-2,4-pyrimidinediamine]?
IC50 [1]: < 10 µM; IC50 [2]: < 10 µM

What does the source list for `CNC(=O)COc1c(C)cc(Nc2ncc(F)c(Nc3ccc4c(c3)OCCO4)n2)cc1C` [Compound 572, N2-[3,5-dimethyl-4-(N-methylamino)carbonylmethyleneoxyphenyl]-N4-(3,4-ethylenedioxyphenyl)-5-fluoro-2,4-pyrimidinediamine]?
IC50 [1]: < 10 µM; IC50 [2]: < 10 µM

`CNC(=O)COc1c(C)cc(Nc2ncc(F)c(Nc3cc(OC)cc(OC)c3)n2)cc1C` [Compound 573, N4-(3,5-Dimethoxyphenyl)-N2-[3,5-dimethyl-4-(N-methylamino)carbonylmethyleneoxyphenyl]-5-fluoro-2,4-pyrimidinediamine] was tested. Which IC50 [1] did it give?
Its IC50 is < 10 µM.

And the IC50 [2]?
The IC50 was < 10 µM.

For `CNC(=O)COc1c(C)cc(Nc2ncc(F)c(Nc3ccc4c(c3)NC(=O)C(C)(C)O4)n2)cc1C` [Compound 574, N2-[3,5-dimethyl-4-(N-methylamino)carbonylmethyleneoxyphenyl]-N4-(2,2-dimethyl-3-oxo-4H-benz[1,4]oxazin-6-yl)-5-fluoro-2,4-pyrimidinediamine], which IC50 [1] is on record?
Its IC50 is < 10 µM.

What about the IC50 [2] of the same compound?
The IC50 was < 10 µM.

Which results are given for `CNC(=O)COc1c(C)cc(Nc2ncc(F)c(Nc3ccc4c(c3)OCO4)n2)cc1C` [Compound 575, N2-[3,5-dimethyl-4-(N-methylamino)carbonylmethyleneoxyphenyl]-5-fluoro-N4-(3,4-methylenedioxyphenyl)-2,4-pyrimidinediamine]?
IC50 [1]: < 10 µM; IC50 [2]: < 10 µM

With `CNC(=O)Cn1ccc2cc(Nc3ncc(F)c(Nc4ccc(OCCO)nc4)n3)ccc21` [Compound 650, 5-Fluoro-N4-[2-(2-hydroxyethyleneoxy)pyrid-5-yl]-N2-[1-(N-methylamino)carbonylmethyleneindol-5-yl]-2,4-pyrimidinediamine] as the compound, how does the IC50 [2] read?
Its IC50 is < 10 µM.

Which IC50 [2] does the source give for `CNC(=O)Cn1ccc2cc(Nc3ncc(F)c(Nc4ccc(OC(F)(F)F)c(Cl)c4)n3)ccc21` [Compound 651, N4-(3-Chloro-4-trifluoromethoxyphenyl)-5-fluoro-N2-[1-(N-methylamino)carbonylmethyleneindol-5-yl]-2,4-pyrimidinediamine] here?
Its IC50 is < 10 µM.

For `CNC(=O)Cn1ccc2cc(Nc3ncc(F)c(Nc4ccc(Cl)c(OC)c4)n3)ccc21` [Compound 653, N4-(4-Chloro-3-methoxyphenyl)-5-fluoro-N2-[1-(N-methylamino)carbonylmethyleneindol-5-yl]-2,4-pyrimidinediamine], which IC50 [2] is on record?
The IC50 was < 10 µM.

For `CNC(=O)Cn1ccc2cc(Nc3ncc(F)c(Nc4ccc(OC)c(Cl)c4)n3)ccc21` [Compound 654, N4-(3-Chloro-4-methoxyphenyl)-5-fluoro-N2-[1-(N-methylamino)carbonylmethyleneindol-5-yl]-2,4-pyrimidinediamine], which IC50 [2] is on record?
Its IC50 is < 10 µM.

For `CNC(=O)Cn1ccc2cc(Nc3ncc(F)c(Nc4ccc5c(c4)OCCO5)n3)ccc21` [Compound 655, N4-(3,4-Ethylenedioxyphenyl)-5-fluoro-N2-[1-(N-methylamino)carbonylmethyleneindol-5-yl]-2,4-pyrimidinediamine], which IC50 [2] is on record?
Its IC50 is < 10 µM.

Which IC50 [2] does the source give for `CNC(=O)Cn1ccc2cc(Nc3ncc(F)c(Nc4ccc(C(=O)NC)c(Cl)c4)n3)ccc21` [Compound 656, N4-[3-Chloro-4-(N-methylamino)carbonylphenyl]-5-fluoro-N2-[1-(N-methylamino)carbonylmethyleneindol-5-yl]-2,4-pyrimidinediamine] here?
The IC50 was < 10 µM.

`COc1cc(Nc2nc(Nc3cccc(-c4ncco4)c3)ncc2F)cc(OC)c1OC` [Compound 667] was tested. Which IC50 (Homo sapiens, Mast cell, tryptase release, 3 point, read-out: LD Tryptase, CHMC, IgE, 3 pt) did it give?
The IC50 was < 10 µM.

`COc1ccc(Nc2ncc(F)c(Nc3ccc4c(c3)OCCO4)n2)c(OC)c1OC` [Compound 668, N4-(3,4-Ethylenedioxyphenyl)-5-fluoro-N2-(2,3,4-trimethoxyphenyl)-2,4-pyrimidinediamine] was tested. Which IC50 [3] did it give?
The IC50 was < 10 µM.

With `COc1ccc(Nc2nc(Nc3ccc(OC)c(OC)c3OC)ncc2F)cc1Cl` [Compound 669, N4-(3-Chloro-4-methoxyphenyl)-5-fluoro-N2-(2,3,4-trimethoxyphenyl)-2,4-pyrimidinediamine] as the compound, how does the IC50 [3] read?
Its IC50 is > 10 µM.

Which IC50 [3] does the source give for `COc1cc(Nc2nc(Nc3ccc(OC)c(OC)c3OC)ncc2F)ccc1Cl` [Compound 670] here?
Its IC50 is > 10 µM.

For `COc1ccc(Nc2ncc(F)c(Nc3ccc(OC(F)(F)F)c(Cl)c3)n2)c(OC)c1OC` [Compound 671], which IC50 [3] is on record?
Its IC50 is < 10 µM.

With `COc1ccc(Nc2ncc(F)c(Nc3ccc4c(c3)NC(=O)C(C)(C)O4)n2)c(OC)c1OC` [Compound 672] as the compound, how does the IC50 [3] read?
Its IC50 is < 10 µM.

`COc1cc(Nc2ncc(F)c(Nc3ccc4c(n3)NC(=O)C(C)(C)O4)n2)cc(OC)c1OC.O=S(=O)(O)c1ccc(O)cc1` [Compound 676, N4-(2,2-Dimethyl-3-oxo-4H-5-pyrid[1,4]oxazin-6-yl)-5-fluoro-N2-(3,4,5-trimethoxyphenyl)-2,4-pyrimidinediamine 4-Hydroxybenzenesulfonic Acid Salt] was tested. Which IC50 [4] did it give?
The IC50 was < 10 µM.

And the IC50 [5]?
The IC50 was < 10 µM.

Which IC50 [4] does the source give for `COc1cc(Nc2ncc(F)c(Nc3ccc4c(n3)NC(=O)C(C)(C)O4)n2)cc(OC)c1OC.O=S(=O)(O)c1cccnc1` [Compound 678, N4-(2,2-Dimethyl-3-oxo-4H-5-pyrid[1,4]oxazin-6-yl)-5-fluoro-N2-(3,4,5-trimethoxyphenyl)-2,4-pyrimidinediamine 0.5 Pyridine-3-sulfonic Acid Salt] here?
The IC50 was < 10 µM.

What about the IC50 [5] of the same compound?
The IC50 was < 10 µM.

For `CCc1ccc(S(=O)(=O)O)cc1.COc1cc(Nc2ncc(F)c(Nc3ccc4c(n3)NC(=O)C(C)(C)O4)n2)cc(OC)c1OC` [Compound 679, N4-(2,2-Dimethyl-3-oxo-4H-5-pyrid[1,4]oxazin-6-yl)-5-fluoro-N2-(3,4,5-trimethoxyphenyl)-2,4-pyrimidinediamine p-Ethylbenzenesulfonic Acid Salt], which IC50 [4] is on record?
The IC50 was < 10 µM.

And the IC50 [5]?
The IC50 was < 10 µM.

Which results are given for `CNC(=O)Cn1ccc2cc(Nc3ncc(F)c(Nc4ccc5c(n4)NC(=O)C(C)(C)O5)n3)ccc21` [Compound 683, N4-(2,2-Dimethyl-3-oxo-4H-5-pyrid[1,4]oxazin-6-yl)-5-fluoro-N2-[1-(N-methylamino)carbonylmethyleneindol-5-yl]-2,4-pyrimidinediamine]?
IC50 [4]: < 10 µM; IC50 [5]: < 10 µM

How did the IC50 [4] turn out when `Cc1cc(Nc2ncc(F)c(Nc3ccc4c(n3)NC(=O)C(C)(C)O4)n2)cc(C)c1Cl` [Compound 684, N2-(4-Chloro-3,5-dimethylphenyl)-N4-(2,2-dimethyl-3-oxo-4H-5-pyrid[1,4]oxazin-6-yl)-5-fluoro-2,4-pyrimidinediamine p-Toluenesulfonic Acid Salt] was run?
Its IC50 is < 10 µM.

With `CC1(C)Oc2ccc(Nc3nc(Nc4cc(Cl)c(O)c(Cl)c4)ncc3F)nc2NC1=O` [Compound 686, N4-(2,2-Dimethyl-3-oxo-4H-5-pyrid[1,4]oxazin-6-yl)-N2-(3,5-dichloro-4-hydroxyphenyl)-5-fluoro-2,4-pyrimidinediamine] as the compound, how does the IC50 [4] read?
Its IC50 is < 10 µM.

And the IC50 [5]?
Its IC50 is < 10 µM.

`CN1C(=O)C(C)(C)Oc2ccc(Nc3ncc(F)c(Nc4ccc5c(n4)N(C)C(=O)C(C)(C)O5)n3)nc21` [Compound 687, N2,N4-Bis (3-oxo-2,2,4-trimethyl-5-pyrid[1,4]oxazin-6-yl)-5-fluoro-2,4-pyrimidinediamine] was tested. Which IC50 [4] did it give?
The IC50 was < 10 µM.
